# Source: patent US8506946B2, “Compositions and methods for attracting noctuid moths” (Cotton Incorporated, priority 2006, dated 2013)
# Experiments:
# [1] = test system: Heliothis virescens; assay: Field trap capture of Heliothis virescens with pheromone mixture with or without synergist (Tedders traps); format: in vivo
# Description: An experiment was carried out near Monticello, Drew County in Arkansas to study the response of tobacco bud worm, Heliothis virescens to a pheromone synergist. The experiment was carried out in a habitat of cotton and soybean. β-caryophyllene was used as a synergist with a mixture of pheromones (Z,E)-9,12-tetradecadien-1-ol acetate and (Z)-9-tetradecen-1-ol acetate at the ratio of 7:3. Tedders traps were used in the experiment. Each pheromone trap was baited with the pheromone mixture and approximately 3-6 mg of 3-caryophyllene and each control trap was baited with the pheromone mixture. The control trap contained no β-caryophyllene or other synergists. The pheromone mixture used in the experiment was LURETAPE® obtained from Hereon Environmental in Emigsville, Pa. The trapped adult insects of Heliothis virescens were collected on a daily basis and the total number of trapped insects was counted. Statistical analysis was done using the Least Squares means separation from the SAS GLM procedure.
# [2] = test system: Spodoptera exigua; assay: Field trap capture of Spodoptera exigua with (Z)-11-hexadecen-1-ol with or without synergist (Tedders traps); format: in vivo; details: approximately 3-6 mg β-caryophyllene added to (Z)-11-hexadecen-1-ol vs control trap with (Z)-11-hexadecen-1-ol only
# Description: An experiment was carried out in three locations in Arkansas to study the response of beet army worm, Spodoptera exigua, in a cotton field to a pheromone synergist. The locations were near Fayetteville, Washington County, near Tillar, Drew County, and near Foreman, Little River County. β-caryophyllene was used as a synergist with (Z)-11-hexadecen-1-ol, a pheromone for Spodoptera exigua. Tedders traps were used in the experiment. Each pheromone trap was baited with (Z)-11-hexadecen-1-ol and approximately 3-6 mg of β-caryophyllene and each control trap was baited with (Z)-11-hexadecen-1-ol. The control trap contained no β-caryophyllene or other synergists. The trapped adult insects of Spodoptera exigua were collected on a daily basis and the total number of trapped insects was counted. Statistical analysis was done using the Least Squares means separation from the SAS GLM procedure.
structure (smiles),measurement,setting,value
C=C1CC/C=C(\C)CC[C@@H]2[C@@H]1CC2(C)C [β-caryophyllene],increase in the number of captured Heliothis virescens,"[1]; year 2004, approximately 3-6 mg β-caryophyllene added to pheromone mixture 7:3 (LURETAPE) vs control trap with pheromone mixture only, FIG. 2",~147%
same,increase in the number of captured Heliothis virescens,"[1]; year 2005, approximately 3-6 mg β-caryophyllene added to pheromone mixture (Z,E)-9,12-tetradecadien-1-ol acetate and (Z)-9-tetradecen-1-ol acetate 7:3 (LURETAPE) vs control trap with pheromone mixture only, cotton and soybean habitat, Arkansas, FIG. 1",~131%
same,change in the number of captured Spodoptera exigua,"[2]; year 2004, FIG. 4",~−9%
same,increase in the number of captured Spodoptera exigua,"[2]; year 2005, cotton field, three locations in Arkansas, FIG. 3",~69%
